Laboratory results as given in US7396946B2, “Compound for treatment of external secretion disorders” (Sucampo AG, priority 1999, dated 2008).
Marks after values point to notes of the source that are not given here.

How the values were obtained:
[1] = system: Rabbit Dry-eye Syndrome Model, which was Induced by Trigeminal Denervation; assay: Basal tear secretion in rabbit dry-eye syndrome model induced by trigeminal denervation (Test Example 2); type: in vivo, male Japanese albino rabbits (Std:JW/CSK); settings: for basal tear secretion: 5 eyes
Procedure: (§1) Fifteen male Japanese albino rabbits (Std:JW/CSK) were used.
(§2) (2) Generating Rabbit Dry-eye Syndrome Model by Trigeminal Denervation.
(§3) Urethane (ALDRICH) was administered i.p. at the dose of 1 g/kg to the rabbits of which occipital hair had been shaved.
(§4) After disinfecting of the shaved area, midline incision of the skin was made from the frontal bone to the ear root, and the muscular tissue around the periosteum, temporal bone and manidibular articular process were detached. After the detachment, a hole of 2×1.5 cm in size was made in the bone from the parietal medial region to the temporal region by means of the bone drill (URAWA KOGYO Co., Ltd. MINITOR C-130) under the surgical microscope (KONAN CAMERA R&I Inc., PMO-50). Then, the dura was detached from the cranial bone while cotton bud was kept inserted between the temporal bone and the dura. After the detachment was made up to the cranial base, detachment was further made toward the medial border of the petrous part of temporal bone in the carnial cavity, to find the trigeminal nerve in the petrous part. Then, the dura of about 1 to 2 mm on the nasal side of the semilunar ganglion was incised. After the incision, the two branches of nerve fascicle, i.e. the first branch (ocular nerve) of the trigeminal nerve and the second branch (maxillary nerve) were pulled laterally and cut with corneoscleral scissors. Immediately after the operation, miosis of the ipsilateral eye was confirmed and then the cotton kept inserted was removed, and the skin at the head was closed with suture. After the operation, an antibiotic (MYCILLIN SQL® Meiji) was administered i.m. at the dose of 0.1 ml/kg.
(§5) The trigeminal denervation was made only on the left eye side, while on the right eye side, no trigeminal denervation nor sham operation was made.
(§6) (3) Method of Administration.
(§7) 13,14-dihydro-15-keto-16,16-difluoro-PGE1 was used as an active ingredient of the present invention to prepare test eyedrops containing 0.0001% and 0.001% of the compound. As a control, the vehicle of the eyedrops without the active ingredient was used.
(§8) Each of the compositions was instilled to the eyes everyday at the volume of 30 μl/eye two times a day (at 10:00 and 18:00) for two weeks. Five eyes per each of the test groups and the control group were treated and then examined for the whole tear secretion, the basal tear secretion and the keratoepithelial lesion as follows.
Before the start of the instillation (week 0), and 1, 2, and 3 weeks after the start, the basal tear secretion was measured 2 hours after the 1st instillation on the day of the examination.
Keratoconjunctiva was anesthetized by instillation of 4% lidocaine (Xylocalne® 4% for ophthalmic solution; Fujisawa Pharmaceutical Co., Ltd.), the eye drops and the tear around the eyelid were wiped off about 5 minutes after and loss of keratoconjunctival esthesia was confirmed with the Cochet-Bonnet type esthesiometer. Then, one edge of the Shirmer's test strip was inserted into the conjunctival sac and kept there for 5 minutes. The length of the moistened part was read from the scale on the strip.
The basal tear secretion was expressed by mean value per minute calculated from the 4-minutes value obtained by subtracting the initial 1-minute value from the 5-minutes Sirmer's test, so that the spontaneous volume of the tear retained in the conjunctival sac might be excluded.

[2] = system: Rabbit Dry-eye Syndrome Model, which was Induced by Trigeminal Denervation; assay: Whole tear secretion (Schirmer's test) in rabbit dry-eye syndrome model induced by trigeminal denervation (Test Example 2); type: in vivo, male Japanese albino rabbits (Std:JW/CSK); settings: for whole tear secretion: 5 eyes
Procedure: as §1, §2, §3, §4, §5, §6, §7, §8
i) Whole Tear Secretion (Schirmer's Test)
Before the start of the instillation (week 0), and 1, 2, and 3 weeks after the start, the whole tear secretion was measured two hours after the first instillation on the day of examination.
Under no anesthetization, one edge of the Schirmer's test strip (Showa Yakuhin Kako Co., Ltd., Lot No. 70080) was inserted into the conjunctival sac of each test animal. One minute after, the strip was removed and the length of the moistened part was read from the scale provided on the strip to determine the amount of whole tear secretion.

[3] = 0.0001% eyedrops 30 μl/eye two times a day for two weeks, week 1
[4] = 0.0001% eyedrops 30 μl/eye two times a day for two weeks, week 2
[5] = 0.0001% eyedrops 30 μl/eye two times a day for two weeks, week 3
[6] = 0.001% eyedrops 30 μl/eye two times a day for two weeks, week 1
[7] = 0.001% eyedrops 30 μl/eye two times a day for two weeks, week 2
[8] = 0.001% eyedrops 30 μl/eye two times a day for two weeks, week 3
[9] = dry-eye syndrome model animals, 0.0001% and 0.001% eyedrops
[10] = test group 0.0001% eyedrops, before administration (after operation, baseline)
[11] = test group 0.001% eyedrops, before administration (after operation, baseline)

In the case of CCCCC(F)(F)C(=O)CCC1C(O)CC(=O)C1CCCCCCC(=O)O (stereo not drawn) [13,14-dihydro-15-keto-16,16-difluoro-PGE1], the basal tear secretion [1, 3] is reported as 1.53 ± 0.26^[+] mm/min, the basal tear secretion [1, 4] is reported as 1.60 ± 0.11**^++ mm/min and the basal tear secretion [1, 5] is reported as 1.48 ± 0.17^#[++] mm/min. For the same compound, the basal tear secretion [1, 6] was 2.00 ± 0.12*^##++ mm/min, the basal tear secretion [1, 7] was 2.00 ± 0.18*^##++ mm/min and the basal tear secretion [1, 8] was 2.00 ± 0.14*^##++ mm/min. For the same compound, the “decreased basal tear secretion (result in words)” value [1, 9] was “improved”, the basal tear secretion [1, 10] was 0.43 ± 0.06^[**^] mm/min and the basal tear secretion [1, 11] was 0.43 ± 0.08 mm/min. For the same compound, the whole tear secretion [2, 3] was 7.10 ± 0.51**^++ mm/min, the whole tear secretion [2, 4] was 6.60 ± 0.37*^##++ mm/min and the whole tear secretion [2, 5] was 6.30 ± 0.68^++ mm/min. The whole tear secretion [2, 6] was 11.20 ± 0.51**^##++ mm/min, the whole tear secretion [2, 7] was 10.50 ± 0.57**^##++ mm/min and the whole tear secretion [2, 8] was 9.90 ± 0.81**^##++ mm/min. For the same compound, the “decreased whole tear secretion (result in words)” value [2, 9] was “improved”, the whole tear secretion [2, 10] was 3.00 ± 0.61 mm/min and the whole tear secretion [2, 11] was 3.20 ± 0.51 mm/min.
